The nature of data set [1]: Compound was tested for the toxic effect in mice after intraperitoneal injection. Format: ADME, organism-based. As to conditions: mouse, in vivo, ip.
The nature of data set [2]: In vitro inhibition of 3-deoxy-D-manno-2-octulosonate cytidylyltransferase (CMP-KDO) synthetase a key enzyme in the biosynthesis of the lipopolysaccharide (LPS) of Gram-negative bacteria.
A short description of data set [3]: In vitro inhibition of (3-deoxy-D-manno-2-octulosonate cytidylyltransferase) CMP-KDO synthetase a key enzyme in the biosynthesis of the lipopolysaccharide (LPS) of Gram-negative bacteria. Details: species or system Escherichia coli.

One may read the LD50 as the dose at which mortality reaches 50%. The molecule `CSSc1cccc2cccc(COC(C)=O)c12` gave an LD50 in data set [1] greater than 1000 mg/kg.

For `c1cc2c3c(cccc3c1)SC2`, in data set [1], the LD50 is roughly 640 mg/kg.

One may read the Ki as the equilibrium dissociation constant of an inhibitor or competing ligand from its target. As to `NC[C@@H](O)[C@H]1O[C@H](C(=O)O)C[C@@H](O)[C@H]1O`, the affinity in data set [2] corresponds to a Ki of 4 µM.

Regarding `O=C(O)[C@@H]1C[C@@H](O)[C@@H](O)[C@@H]([C@H](O)CO)O1`, the Ki in data set [3] turned out to be 12 µM.
